Source: patent publication US8629144B2, “Polymorphic and hydrate forms, salts and process for preparing 6-{difluoro[6-(1-methyl-1H-pyrazol-4-yl)[1,2,4]triazolo[4,3-b]pyridazin-3-yl]methyl}quinoline” (Janssen Pharmaceutica NV, priority 2007, dated 2014)
Converted amounts (≈) assume the structure as drawn. Like-named read-outs stand apart in the source and are kept apart here.

What was measured:
[1] = Water solubility of salts of compound (I); format: physicochemical; conditions: 24 hours at 20° C.; for Measured pH: saturated solution in water; for Solubility: water, UV spectrometry
Description: An excess of different salts of compound (I) was agitated with water during 24 hours at 20° C. Following filtration, the concentration of compound (I) in the solution was determined by UV spectrometry.

[2] = Water adsorption (hygroscopicity) of salts of compound (I); format: physicochemical; conditions: for Water adsorbed: dried 1 h at 25° C. under dry nitrogen flow
Description: Free base of compound (I) (3 g; 7.95 mmol) was dissolved in absolute ethanol (40 mL) and heated to 78° C. An acid (HCl 6M in 2-propanol, 2.0 ml (12 mmol); HBr 48% in water, 0.98 mL (8.75 mmol); methane sulphonic acid, 917 mg (9.54 mmol); ethane sulphonic acid, 1.05 g (9.54 mmol) or p-toluene sulphonic acid monohydrate (1.66 g (8.75 mmol)) was added to the hot reaction mixture. The reaction mixture was allowed to cool to room temperature. The resulting precipitate was filtered off, washed with ethanol and dried under vacuum at 60° C.
The obtained solids were analysed by acid titration, Karl-Fisher titration and HPLC. A physical characterisation was performed (DSC, TGA, XRD and IR, DVS).

[3] = rat, in vivo, po
Description: (§1) Five male SD rats (225±11 g) were used per salt form. From each rat a complete plasma concentration time profile was obtained. Tap water and food were available ad libitum. The test involved salts of compound (I) with HBr, HCl, methanesulphonic acid (mesylate), ethanesulphonic acid (esylate) or p-toluenesulphonic acid (tosylate). The individual salts were dispersed in a 0.5% methocel suspension to a final concentration of 1 mg base eq./ml. The formulations were stored at room temperature.
(§2) Administration was oral by gastric intubation: 10 ml/kg to obtain a dose of 10 mg base eq./kg.
(§3) Blood samples were collected 30 min, 1, 2, 4, 7 and 24 h after dose administration.
(§4) Blood was collected by multiple sampling from a tail vein into Multivette® 600 K3E tubes (Sarstedt). Samples were placed immediately on melting ice and plasma was obtained following centrifugation at 4° C. for 10 minutes at approximately 1900×g. All samples were shielded from daylight and stored at ≦−18° C. prior to analysis.
(§5) A limited pharmacokinetic analysis was performed using WinNonlin™ Professional (Version 5.1). A non-compartmental analysis using the lin/log trapezoidal rule with lin/log interpolation was used for all data.

[4] = Absorption and plasma kinetics after oral administration of salts to rat; conditions: male SD rats, oral 10 mg base eq./kg
Description: as §1, §2, §3, §4, §5

[5] = Slurry conversions on Form III and Form III/hydrate (XRPD); format: physicochemical; set-up: key: Form III; hydrate
Description: 20 mg Form III with 0.25 ml solvent (2-propanol; or 2-propanone/water (8/2, v/v); or methanol/water (8/2, v/v)) was deposited in a vial. For each solvent, 3 vials were prepared and stored each at different temperatures (4° C., RT, 40° C.) for two days. After storage, the slurry was spread on a paper filter, the solid fractions were collected and dried 2 hours at RT. In a further experiment, the Form III was seeded with the hydrate using methanol/water (8/2, v/v) as the solvent. The polymorphic composition was measured using XRPD.

[6] = Thermal conversions in DSC oven (XRPD); format: physicochemical
Description: Form III or hydrate form were thermally treated in a DSC oven (heating rate 10° C./min) up to selected temperatures (isotherm for 1 min) using an open sample pan. The selected temperatures are for Form III: 110° C. and 170° C.; and for hydrate form: 70° C., 110° C. and 170° C. The polymorphic composition of the obtained fractions was measured by XRPD. Table 12 summarises XRPD patterns in DSC treated Form III. Table 13 summarises XRPD patterns in DSC treated hydrate

[7] = Aqueous solubility of Forms I, III and hydrate at different pH; format: physicochemical
Description: Solubility of polymorph Forms I and III and the hydrate form of the compound of formula (I) was tested in aqueous conditions at different pH values.

## CS(=O)(=O)O.Cn1cc(-c2ccc3nnc(C(F)(F)c4ccc5ncccc5c4)n3n2)cn1 [mesylate salt]
[1]
  Measured pH: pH = 1.9
  Solubility: 0.047 g/100 ml H2O
[2]
  Hygroscopicity: hygroscopic
[2]; at high relative humidity
  Water adsorbed: up to 4.5%
[3]
  Tmax: 1.2 ± 0.4 h
  t1/2 (4-24 h): 3.7 ± 0.6 h

## Cc1ccc(S(=O)(=O)O)cc1.Cn1cc(-c2ccc3nnc(C(F)(F)c4ccc5ncccc5c4)n3n2)cn1 [tosylate salt]
[1]
  Measured pH: pH = 2.1
  Solubility: 0.023 g/100 ml H2O
[4]; 0.5 hours, 0.5% methocel suspension (LLOQ given in ng/ml)
  Plasma concentration, Mean ± SD: 2193 ± 1031
[4]; 1 hour
  Plasma concentration, Mean ± SD: 2998 ± 1349
[4]; 2 hours
  Plasma concentration, Mean ± SD: 3274 ± 995
[4]; 4 hours
  Plasma concentration, Mean ± SD: 2512 ± 960
[4]; 7 hours
  Plasma concentration, Mean ± SD: 1625 ± 537
[4]; 24 hours
  Plasma concentration, Mean ± SD: 47.9 ± 24.0
[4]; Mean ± SD
  AUC0-24 h: 24307 ± 7457 ng·h/mL
  AUC0-inf: 24558 ± 7503 ng·h/mL
  Cmax: 3380 ± 944 ng/mL
  Tmax: 2.0 ± 1.2 h
  t1/2 (4-24 h): 3.4 ± 0.6 h
[2]
  Hygroscopicity: non-hygroscopic
[2]; depending on the atmospheric humidity
  Water adsorbed: up to 0.2%

## Cn1cc(-c2ccc3nnc(C(F)(F)c4ccc5ncccc5c4)n3n2)cn1 [Form III, 6-{difluoro[6-(1-methyl-1H-pyrazol-4-yl)[1,2,4]triazolo[4,3-b]pyridazin-3-yl]methyl}quinoline]
[5]; 2-propanol, 4° C., two days
  Polymorphic composition (XRPD) after slurry: III
[5]; 2-propanol, 40° C., two days
  Polymorphic composition (XRPD) after slurry: III
[5]; 2-propanol, RT, two days
  Polymorphic composition (XRPD) after slurry: III
[5]; 2-propanone/water (8/2, v/v), 4° C., two days
  Polymorphic composition (XRPD) after slurry: hy
[5]; 2-propanone/water (8/2, v/v), 40° C., two days
  Polymorphic composition (XRPD) after slurry: hy
[5]; 2-propanone/water (8/2, v/v), RT, two days
  Polymorphic composition (XRPD) after slurry: hy
[5]; methanol/water (8/2, v/v) containing hydrate seeds, 4° C.
  Polymorphic composition (XRPD) after slurry: III
[5]; methanol/water (8/2, v/v) containing hydrate seeds, 40° C.
  Polymorphic composition (XRPD) after slurry: III
[5]; methanol/water (8/2, v/v) containing hydrate seeds, RT
  Polymorphic composition (XRPD) after slurry: III
[5]; methanol/water (8/2, v/v), 4° C., two days
  Polymorphic composition (XRPD) after slurry: III
[5]; methanol/water (8/2, v/v), 40° C., two days
  Polymorphic composition (XRPD) after slurry: III
[5]; methanol/water (8/2, v/v), RT, two days
  Polymorphic composition (XRPD) after slurry: III
[6]; DSC treated Form III, up to 110° C.
  XRPD measured composition: Form III
[6]; DSC treated Form III, up to 170° C.
  XRPD measured composition: Form I
[6]; starting Form III
  XRPD measured composition: Form III
[7]; 0.01 HCl
  Solubility: 78 µg/mL (≈ 207 µM)
[7]; 0.1 HCl
  Solubility: 970 µg/mL (≈ 2570 µM)
[7]; pH2
  Solubility: 130 µg/mL (≈ 345 µM)
[7]; pH4
  Solubility: 3 µg/mL (≈ 7.95 µM)
[7]; pH6
  Solubility: 1 µg/mL (≈ 2.65 µM)
[7]; pH8
  Solubility: 1 µg/mL (≈ 2.65 µM)
[7]; pH10
  Solubility: 2 µg/mL (≈ 5.3 µM)

## CCS(=O)(=O)O.Cn1cc(-c2ccc3nnc(C(F)(F)c4ccc5ncccc5c4)n3n2)cn1 [esylate salt]
[1]
  Measured pH: pH = 2.1
  Solubility: 0.025 g/100 ml H2O
[2]
  Hygroscopicity: hygroscopic
[2]; at high relative humidity
  Water adsorbed: up to 34%
[3]
  Tmax: 1.6 ± 0.5 h
  t1/2 (4-24 h): 3.3 ± 0.4 h
